Experimental data taken from patent US20170050989A1, “Molecular Imaging Probes” (THE GENERAL HOSPITAL CORPORATION, priority 2013, published 2017).
Entries after “also recorded” stand apart in the source; their conditions may differ.

Tests used:
[1] = test system: fibrotic liver (CCl4 mice); experiment: MR liver imaging in CCl4 mouse model of liver fibrosis (18 weeks); format: in vivo; settings: fibrotic (CCl4-treated) mouse, pre vs 30-minute post administration
Method: Liver Fibrosis: Strain A/J male mice (Jackson Laboratories, Bar Harbor, Me.) were administered 0.1 mL of a 40% solution of CCl4 (Sigma, St. Louis, Mo.) in olive oil by oral gavage three times a week for 18 weeks to induce fibrosis. Controls received only pure olive oil. Animals were imaged one week after the last injection to avoid acute effects of CCl4.
Mice were imaged with T1-weighted imaging before and after bolus (tail vein) injection of probe (Compound 1 or Compound 2) using a 4.7T scanner. Image visualization and quantification was performed using the DICOM viewer Osirix. A region of interest (ROI) was placed over the entire liver section while avoiding major blood vessels. Axial slices that cover the entire liver is analyzed (>10 slices/mouse). The signal intensity of the muscle within each slice was also quantified by a separate ROI. To estimate noise, an ROI of the air outside the animal was measured and the standard deviation of this measurement was taken. The same analysis was performed on the pre and 30-min post injection images (3D FLASH sequence).
Contrast to noise ratio (CNR) is calculated using equation (1). SI=signal intensity, SD=standard deviation, and delta CNR is the absolute difference between the pre- and post- images (2).
(§1) CNR=(SIliver−SImuscle)/SDair (1)
Delta CNR={CNRpost−CNRpre} (2)

[2] = molecular target: T1, unmodified bovine serum albumin (BSA) (Bos taurus, UniProt P02769); experiment: In vitro binding assay: Gd bound to protein after ultrafiltration (ICP); settings: protein fraction after separation from free solution
T1 construct: A BSA protein standard without the addition of glutaraldehyde was run in parallel as a control

[3] = test system: liver fibrosis (CCl4-treated mice); experiment: MR liver imaging in mice after 6 or 12 weeks of CCl4 treatment, or 6 weeks plus recovery; format: in vivo; settings: for ΔCNR (liver:muscle contrast-to-noise ratio): 15-minute post injection; for liver signal enhancement post vs pre injection (in words): 15 min post injection
Method: Strain A/J male mice (Jackson Laboratories, Bar Harbor, Me.) were administered 0.1 ml of a 40% solution of CCl4 (Sigma, St. Louis, Mo.) in olive oil by oral gavage, three times a week for either 6 (n=14) or 12 weeks (n=10), to induce fibrosis at different stages. Controls received only pure olive oil (n=12).
Animals were imaged prior to and immediately following injection of the imaging probe. After imaging, the animals were sacrificed and the liver was removed for histopathological analyses.
Animals were anesthetized with isoflurane (1-2%) and placed in a specially designed cradle with body temperature maintained at 37° C. The tail vein was cannulated for intravenous (iv) delivery of the contrast agent while the animal was positioned in the scanner. Imaging was performed at 4.7T using a small bore animal scanner (Bruker Biospec) with a custom-built volume coil. The mouse was imaged prior to and following a bolus iv injection of Compound 1 (100 μmol/kg). The image sequence was a three dimensional fast low angle shot (3D FLASH) acquisition with repetition time (TR=15.3 ms), echo time (TE=1.54 ms), flip angle=15°, field of view 48×24×24 mm and matrix size 192×96×96 for a resolution of 250 μm isotropic and […] used 4 averages.
Image analysis was performed using the Osirix software. A region of interest (ROI) was manually traced encompassing the liver parenchyma while avoiding major blood vessels. A second ROI was placed on the dorsal muscle visible in the same image slice to quantify the signal intensity in the muscle for comparison. Seven ROIs were placed in the field of view without any tissue (air) to measure the noise in the image. More than 20 axial slices per mouse across the entire liver was analyzed in this fashion. The same analysis was performed on the pre-injection and 15-minute post injection images.
To quantify signal enhancement in the liver, contrast to noise ratio (CNR) was calculated using equation 1 below. SI=signal intensity, SD=standard deviation. An average of all image slices was calculated for the pre-injection images (CNRpre) and for the post-injection images (CNRpos). The liver enhancement for each mouse was expressed as ΔCNR, the difference between the pre-injection CNR and post-injection CNR (equation 2).
as §1
Differences among groups were tested with repeated measures ANOVA, followed by Student-Newman-Keuls post hoc test with P<0.05 considered as significant.
Strain A/J male mice (Jackson Laboratories, Bar Harbor, Me.) were administered 0.1 ml of a 40% solution of CCl4 (Sigma, St. Louis, Mo.) in olive oil by oral gavage, three times a week for 6 weeks and then allowed to recover for an additional 6 weeks (n=7). Animals were imaged prior to and immediately following injection of the imaging probe using the same protocol as in the previous example.
We compared Compound 2 to Compound 1 in terms of their ability to image fibrosis. Compound 2 has a very similar structure to Compound 1 but the hydrazide functional group has been dimethylated. The resulting dimethylhydrazide in Compound 2 is incapable of undergoing irreversible reaction with aldehyde moieties. Using the same animal model and imaging paradigm as described in the previous Example, mice that had been treated with CCl4 for 12 weeks or mice that received vehicle for 12 weeks were imaged.

[4] = molecular target: T1, unmodified bovine serum albumin (BSA); experiment: T1 relaxivity/relaxation after incubation with unmodified BSA; format: binding
Method: (§2) A solution of glutaraldehyde (100 μL, 25% wt solution in water) was added to a solution of bovine serum albumin (100 mg) dissolved in phosphate buffered saline (2 mL, pH 7.4, 0.25 mM) and left to stir at room temperature for 5 min. To this solution was added sodium cyanoborohydride (25 mg) and the solution stirred overnight at 4° C. A BSA protein standard without the addition of glutaraldehyde was run in parallel as a control. Both protein mixtures were purified on PD-10 Sephadex G25 desalting columns (GE Healthcare), eluted with water, to remove excess glutaraldehyde. Protein concentrations were assessed using the ‘BCA Protein Assay Kit’ (Thermo Scientific). […] The aldehyde concentration of each protein was estimated using a standard DNPH literature protocol.
(§3) Aliquots of BSA-ALD (3 mg, 150 μL) or BSA (3mg, 163 μL) were treated for 24 h at 37° C. with either Compound 1 or Compound 2 at a range of concentrations (0.1-1.0 mM, concentrations equivalent to [Gd]:[aldehyde] ratio of 1:1, 2:1, 3:1, 4:1 and 5:1) with a total volume of 300 μl maintained for all samples. After 24 h longitudinal (T1) relaxation measurements were recorded using a Bruker mq20 Minispec at 0.47 T and 37° C. […] Relaxivity (r1) was determined from the slope of a plot of 1/T1 vs [Gd] for 5 concentrations of Gd(III). […]

[5] = molecular target: T2, modified bovine serum albumin (BSA-ALD) (Bos taurus, UniProt P02769); experiment: T1 relaxivity/relaxation after incubation with aldehyde-modified BSA; format: binding
Method: as §2, §3

[6] = T1 relaxivity of probe in solution (water) without protein; format: physicochemical; settings: no protein, 310K, pH 7, 0.47 T
Method: Aliquots of BSA-ALD (3 mg, 150 μL) or BSA (3mg, 163 μL) were treated for 24 h at 37° C. with either Compound 1 or Compound 2 at a range of concentrations (0.1-1.0 mM, concentrations equivalent to [Gd]:[aldehyde] ratio of 1:1, 2:1, 3:1, 4:1 and 5:1) with a total volume of 300 μl maintained for all samples. After 24 h longitudinal (T1) relaxation measurements were recorded using a Bruker mq20 Minispec at 0.47 T and 37° C. Longitudinal (T1) relaxation was acquired via an inversion recovery experiment on 10 inversions of duration ranging between 0.05×T1 and 10×T1. Relaxivity (r1) was determined from the slope of a plot of 1/T1 vs [Gd] for 5 concentrations of Gd(III).
Solutions of Compound 1 and Compound 2 (concentration range: 0.1 mM-1.0 mM, in water) were run in parallel without protein as standard controls.

[7] = molecular target: T2, modified bovine serum albumin (BSA-ALD); experiment: In vitro binding assay: Gd bound to protein after ultrafiltration (ICP); settings: protein fraction after separation from free solution

T2 sequence (P02769 25-607): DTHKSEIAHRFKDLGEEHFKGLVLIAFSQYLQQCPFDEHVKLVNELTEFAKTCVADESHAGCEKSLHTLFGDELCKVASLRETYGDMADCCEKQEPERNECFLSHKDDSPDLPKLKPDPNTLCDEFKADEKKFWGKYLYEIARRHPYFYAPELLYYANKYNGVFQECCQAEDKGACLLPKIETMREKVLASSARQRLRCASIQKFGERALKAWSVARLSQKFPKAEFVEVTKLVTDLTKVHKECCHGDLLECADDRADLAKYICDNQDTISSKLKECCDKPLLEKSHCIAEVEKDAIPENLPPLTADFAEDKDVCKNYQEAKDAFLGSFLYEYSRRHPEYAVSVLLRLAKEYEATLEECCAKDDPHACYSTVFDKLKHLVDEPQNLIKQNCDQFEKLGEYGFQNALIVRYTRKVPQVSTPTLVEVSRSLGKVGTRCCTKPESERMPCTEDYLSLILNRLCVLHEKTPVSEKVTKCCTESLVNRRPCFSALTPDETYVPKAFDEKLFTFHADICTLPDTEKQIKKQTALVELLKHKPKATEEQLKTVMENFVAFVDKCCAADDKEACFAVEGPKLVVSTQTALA
T1 sequence (P02769 25-607): as above

With `CN(C)NC(=O)CC[C@H](C(=O)O)N1CCN(CC(=O)[O-])CCN(CC(=O)[O-])CCN(CC(=O)[O-])CC1.[Gd+3]` [Compound 2, (R)-2,2′,2″-(10-(1-carboxy-4-(2,2-dimethylhydrazinyl)-4-oxobutyl)-1,4,7,10-tetraazacyclododecane-1,4,7-triyl)triacetic acid Gadolinium complex] the “MR signal enhancement of liver” value [1] was “very little enhancement; also recorded: little MR signal enhancement”, the “Gd bound to protein” value [2] was “No statistically significant amount” and the “increase in ΔCNR, 12-week CCl4-treated vs vehicle” value ([3]; 12-week CCl4-treated animals vs vehicle) was “no difference”. For the same molecule, the “ΔCNR (liver:muscle contrast-to-noise ratio)” value ([3]; 12-week CCl4-treated mice) was 0.5±0.5, the “liver signal enhancement post vs pre injection (in words)” value ([3]; 12-week CCl4-treated mice) was “slight enhancement” and the “ΔCNR (liver:muscle contrast-to-noise ratio)” value ([3]; vehicle (olive oil) treated control mice, probe injected iv) was 0.6±0.9. For the same molecule, the “liver signal enhancement post vs pre injection (in words)” value ([3]; vehicle treated mice) was “slight enhancement”, the “change in T1 relaxation time compared to standards” value ([4]; fractions after separation, BSA (FIG. 5A)) was “did not differ significantly” and the “T1 relaxivity with BSA” value ([4]; incubated 24 h at 37° C. with BSA, 310K, pH 7, 0.47 T) was 4.20 mM⁻¹ s⁻¹. For the same molecule, the “T1 relaxivity with BSA-ALD” value ([5]; incubated 24 h at 37° C. with BSA-ALD, 310K, pH 7, 0.47 T) was 4.22 mM⁻¹ s⁻¹, the “change in T1 relaxation time of protein fraction compared to solution controls” value ([5]; protein fraction after separation, BSA-ALD (FIG. 5A)) was “did not differ significantly” and the “T1 relaxivity, standard solution measurement” value [6] was 4.09 mM⁻¹ s⁻¹. For the same molecule, the “Gd bound to protein” value [7] was “No statistically significant amount”.
